We go through 103 compounds from ChEMBL document CHEMBL3507680, “University of Dundee, Gates Library screen for HepG2 cell viability”.

The data set in a line: Human HepG2 cell viability assay in 384 well format. Set-up: dose 125 nL, time 70.5 hour; concentration not given beside the values. It counts as toxicity, cell-based. Particulars: HepG2 cells, read-out: Inhibition.

For `CC(NCC1(N(C)C)CCOCC1)c1ccc(SC(F)F)cc1` (stereo not drawn), the cytotoxicity at 70.5 h amounted to 2.6%.
The value for `CN(Cc1nnc(C2CC2)o1)Cc1ccccc1N1CCOCC1` was -4.09%; that for `COCCCS(=O)(=O)N1CCN(C(C)(C)CO)CC1` was -7.76%.
The same measure for `Cc1ccc(S(=O)(=O)NC(CO)CC(C)C)cc1N(C)C` (stereo not drawn): -3.97%; for `CC(C)Nc1nnc(SCc2nnc(C(C)(C)C)o2)s1`: -6.2%; for `CN(Cc1c(F)cccc1Cl)C(=O)Cn1cnc(C#N)n1`: -7.04%.
The same measure for `Cc1ccc(OCC(=O)Nc2ccc(S(C)(=O)=O)cc2)cc1C`: 14%.
On to `O=C(NCCN1CCOCC1)c1cnc(-c2ccccc2F)s1`, for which the cytotoxicity at 70.5 h is -3.87%.
The same measure for `CCc1nnc2n1CCN(C(=O)C1CCC(n3cccc3)CC1)C2` (stereo not drawn): -6.9%.
The value for `Cn1ccc(C(=O)Nc2nccn2Cc2ccccc2Cl)cc1=O` was -7.59%; that for `Cc1nccn1-c1ccc(NS(=O)(=O)c2cccnc2)cn1` was -1.79%; that for `CC(Cc1ccccc1F)C(=O)Nc1ccc(OCCC(N)=O)cc1` (stereo not drawn) was -3.92%.
For the compound `CS(=O)(=O)CCC(=O)Nc1nccn1Cc1ccccc1Cl`, the cytotoxicity at 70.5 h is 0.444%.
With `CCN(CC)S(=O)(=O)CC(=O)N1CCc2ccc(C)cc21`, the cytotoxicity at 70.5 h was -7.29%.
For the compound `N#Cc1ccc(F)c(CNc2ccc(F)cc2OCCO)c1`, the cytotoxicity at 70.5 h turned out to be 16.6%.
The value for `CC(C)N1CCC(CNC(=O)CCc2cc(F)ccc2F)C1` (stereo not drawn) was 14.8%; that for `Cc1cc(CN(C2CC2)C(C)C(C)C)on1` (stereo not drawn) was 1.68%.
Regarding `COCCN(CCOC)C(=O)c1ccn(-c2ccccc2Cl)n1`, the cytotoxicity at 70.5 h was 17.5%.
The same measure for `Cc1nc(CN2CCCN(C(=O)c3cccn3C)CC2)cs1`: 1.17%; for `COc1cc2c(nn1)CCN(Cc1nnc(Cc3ccccc3)o1)C2`: -3.6%; for `COC(=O)C(C)N(Cc1cc(C)on1)C1CC1` (stereo not drawn): -5.22%.
On to `CNC(=O)N1CCOCC1c1c(C)nn(C)c1C` (stereo not drawn), for which the cytotoxicity at 70.5 h came out at 2.35%.
For `Cc1noc(C)c1C(=O)N(C)C(C)c1ccncc1` (stereo not drawn), the cytotoxicity at 70.5 h was -5.68%.
The same measure for `O=C(NCC1CCOC1)c1cc(-c2ccc(F)cc2)[nH]n1` (stereo not drawn): -10.8%; for `O=C1NCCCCC1NC(=O)N1CCCc2ccccc21` (stereo not drawn): -12.7%.
The value for `CC(Oc1cccc(Cl)c1)C(=O)Nc1cnn(CC(=O)NC2CC2)c1` (stereo not drawn) was -17.2%.
As for `CC(NC(=O)NC1CCN(Cc2ccncc2)CC1)c1cccc(F)c1` (stereo not drawn), the cytotoxicity at 70.5 h was -6.53%.
As to `CN(C)c1cccc(C(=O)Nc2cnn(Cc3ccncc3)c2)c1`, the cytotoxicity at 70.5 h is -11.3%.
The same measure for `CS(=O)(=O)c1ccc(CNC(=O)NCc2cc[nH]n2)cc1`: -12.3%; for `Cc1ccc(-c2cc(C(=O)NCC3CCOC3)n[nH]2)s1` (stereo not drawn): 20.2%.
The same measure for `CC(C)c1noc(C(C)N2CCC(c3nc4ccccc4[nH]3)CC2)n1` (stereo not drawn): -7.42%.
The value for `Cc1ccc(F)c2c1N(C(=O)c1ccc(S(C)(=O)=O)cc1)CCC2` was -10.6%.
With `Cc1ccc(-c2nc(C(=O)N(C)CC(=O)N(C)C)cs2)c(C)c1`, the cytotoxicity at 70.5 h is 20.9%.
The same measure for `Cc1noc(C(C)N2CCC(c3nc4ccccc4[nH]3)CC2)n1` (stereo not drawn): -3.97%; for `CC(=O)NCc1ccc(C(=O)N2CCCc3c(F)ccc(C)c32)o1`: -2.6%; for `CC(C)Cn1cc(NC(=O)c2cccc(N(C)C)c2)cn1`: -8.55%.
As for `O=C1OCCCN1Cc1nc(-c2ccncc2)no1`, the cytotoxicity at 70.5 h was -12.6%.
The value for `CN(c1ncc(S(N)(=O)=O)s1)C1CCc2ccccc2C1` (stereo not drawn) was -10%.
For the compound `CNS(=O)(=O)CC(=O)N(C1CC1)C1Cc2ccccc2C1`, the cytotoxicity at 70.5 h was -13.4%.
The same measure for `Cc1ccccc1Cc1nc(CSc2nnc(N)n2C2CC2)no1`: -12.1%; for `CCSc1cc(C(=O)N(CC(F)F)C(C)C)ccn1`: -3.2%; for `C=C(C)CN(CC)C(=O)CN1CCCC1C(=O)N(C)C` (stereo not drawn): -4.6%.
With `CCn1cc(CN2CCN(C(=O)N3CCOCC3)CC2)cn1`, the cytotoxicity at 70.5 h turned out to be 16.2%.
The same measure for `CC(C)CN(C)S(=O)(=O)c1ccc(Cl)cc1C#N`: 34.3%; for `CCC(CNC(=O)Cn1ccnc1)Oc1cccc(F)c1` (stereo not drawn): 21.1%.
On to `NC(=O)C(NCc1cccs1)c1ccccc1` (stereo not drawn), for which the cytotoxicity at 70.5 h was -9.69%.
The value for `O=C(NCc1cccnc1OCC(F)(F)F)N1CCOCC1` was 7.44%; that for `COc1ncccc1CNC(=O)N1CCC(CN2CCOCC2)CC1` was 13.3%.
The same measure for `CC(C)Oc1ncccc1CNC(=O)N1CCOCC1`: -14.9%; for `Cc1occc1C(=O)NCC(=O)N(C)CCCOc1ccc(F)cc1`: -6.91%; for `Cc1cc(C)c(CNC(=O)NCCc2cccnc2)c(=O)[nH]1`: -10.1%.
The same measure for `CCCC(C#N)NC(=O)CCCOc1cccc(F)c1` (stereo not drawn): -9.46%; for `c1ccc2sc(N3CCCC(Cn4cncn4)C3)nc2c1` (stereo not drawn): -6.17%.
For the compound `Cn1cccc(NC(=O)NCCc2cccc(O)c2)c1=O`, the cytotoxicity at 70.5 h amounted to 9.38%.
The value for `Cn1cccc(NC(=O)NCc2cccc(CO)c2)c1=O` was 7.6%.
The value for `O=C(NCCc1nnc[nH]1)Nc1cccc(SC(F)F)c1` was -9.47%; that for `CCS(=O)(=O)N1CCc2c(cccc2NCc2nc(C)c(C)o2)C1` was 19.1%; that for `CCC(CNC(=O)c1ccc(C(N)=O)cc1)Oc1cccc(F)c1` (stereo not drawn) was -1.85%.
The same measure for `Cc1nc(CC2CCCN(Cc3nc4ccccc4c(=O)[nH]3)C2)no1` (stereo not drawn): -7.59%.
On to `CCC(O)CN(c1ccccc1)S(=O)(=O)c1cnc(C)s1` (stereo not drawn), for which the cytotoxicity at 70.5 h turned out to be 18.5%.
The value for `CCc1cnc(CNc2cccc3c2CCN(S(=O)(=O)CC)C3)o1` was -2.87%; that for `CCN(CC)C(=O)N1CCN(CCc2ccncc2)CC1` was -7.09%.
On to `CC(=O)c1cccc(OCCCC(=O)NC(C#N)CC(C)C)c1` (stereo not drawn), for which the cytotoxicity at 70.5 h was -9.77%.
For `CCn1cc(CN2CCCN(C(=O)C3(C)CCOCC3)CC2)cn1`, the cytotoxicity at 70.5 h is -10.2%.
As for `Cc1occc1C(=O)NCC(=O)N(C)CCCOc1ccccc1`, the cytotoxicity at 70.5 h is -1.18%.
The value for `CCCN(CC1COc2ccccc2O1)C(=O)c1ncoc1CC` (stereo not drawn) was -7.46%; that for `O=C(NCc1nc(C2CC2)no1)N1CCOC(c2ccccc2)C1` (stereo not drawn) was -13.1%.
`CCN(CC)CC(=O)N1CCN(CCCc2ccncc2)CC1`: the cytotoxicity at 70.5 h is -0.476%.
The same measure for `NC(=O)N1CCCC(C(=O)NCCOc2ccc3c(c2)OCO3)C1` (stereo not drawn): 2.99%; for `COC(=O)c1cccc(S(=O)(=O)Nc2ccc(F)c(C(N)=O)c2)c1`: 14.1%; for `CC(NC(=O)Nc1cccnc1N1CCCC1)c1ccccn1` (stereo not drawn): -17.8%.
The same measure for `NC(=O)CC1CCN(c2ncnc3cccc(F)c23)CC1`: -3.61%; for `CSCc1ccc(CNCCN2CCOCC2)o1`: -12.8%.
The value for `Cc1oc(C)c(C(=O)NS(=O)(=O)c2ccc3c(c2)OCCCO3)c1C` was -27.5%.
In the case of `Cc1noc(C(C)N2CCN(CCc3ccncc3)CC2)n1` (stereo not drawn), the cytotoxicity at 70.5 h was -4.19%.
The same measure for `CC(NC(=O)Nc1cccnc1N1CCOCC1)c1ccccc1` (stereo not drawn): -8.45%; for `N#CC1(NC(=O)c2nccc3ccccc23)CCC2(CC1)OCCO2`: -25.4%.
The same measure for `Cc1noc(C)c1CN1CCC(NC(=O)OC(C)(C)C)CC1`: -0.745%; for `Cc1cc(Cn2cc(C#N)c(=O)c3ccccc32)no1`: -5.19%.
The value for `Cc1cc(Cn2cc(C#N)c(=O)c3ccccc32)on1` was 8.12%.
Turning to `COC(=O)C1CCN(C(=O)NCC(C)Cc2cccs2)CC1` (stereo not drawn), the cytotoxicity at 70.5 h was -14.5%.
The value for `CCOCCN1CCN(C(C)C(=O)Nc2ccnn2C(C)C)CC1` (stereo not drawn) was -3.46%.
For `CC(NCc1ccco1)c1nnc2n1CCCC2` (stereo not drawn), the cytotoxicity at 70.5 h is -5.13%.
`CCN(CC)C(=O)CCNC(=O)N(C)Cc1ccc(SC)c(OC)c1`: the cytotoxicity at 70.5 h is -11.2%.
The same measure for `CCCn1nc2c(cc1=O)CN(Cc1ccccn1)CC2`: 0.0556%; for `NCC1(c2cccc(C(F)(F)F)c2)CC1`: 13.4%.
The value for `CC(=O)c1cccc(NC(=O)CN2CCCC(C3OCCO3)C2)c1` (stereo not drawn) was -7.07%; that for `CC(=O)c1cccc(NC(=O)CN2CCCCC2C)c1` (stereo not drawn) was -2.56%.
On to `CCOc1cc(/C=C/c2ncc(C(=O)NC)s2)ccc1OC`, for which the cytotoxicity at 70.5 h was -13.2%.
Take `COc1ccc(NC(=O)CCC(C)C)c(N2CCN(C(C)=O)CC2)n1`: the cytotoxicity at 70.5 h was -13.6%.
The value for `COC(=O)CCNC(=O)c1nnn(-c2ccc(F)cc2)c1C1CC1` was -10.2%; that for `COc1ccc(N)c(N2CCN(C(C)=O)CC2)n1` was -11%; that for `CNS(=O)(=O)c1cccc(C(C)NCc2cccc(O)c2)c1` (stereo not drawn) was -11.9%.
The value for `Cc1ccc(C(CNCc2ncc[nH]2)N2CCOCC2)s1` (stereo not drawn) was -12.7%; that for `Cc1ccc(C(CNCc2ccc(C#N)cc2)N2CCOCC2)s1` (stereo not drawn) was -3.96%; that for `CCC(=O)N1CCCN(c2cncc(-n3nc(C)cc3C)n2)CC1` was -4.7%.
As to `Cc1cc(C)n(-c2cncc(N3CCN(C(=O)C(C)C)CC3)n2)n1`, the cytotoxicity at 70.5 h was -4.92%.
For `COCc1nc2cc(NCc3scnc3C)ccc2o1`, the cytotoxicity at 70.5 h was -5.1%.
Regarding `NC(=O)NC(=O)Cn1ccc2sccc2c1=O`, the cytotoxicity at 70.5 h was -5.03%.
With `COCc1nc2cc(NCc3ncc[nH]3)ccc2o1`, the cytotoxicity at 70.5 h is -3.38%.
The value for `CNS(=O)(=O)c1cccc(C(C)NCc2ccc(C)o2)c1` (stereo not drawn) was -2.97%; that for `CCC(=O)N1CCCN(C(=O)C2SCCc3sccc32)CC1` (stereo not drawn) was 3.13%; that for `CN(CC(=O)Nc1cccnc1)CC1CCCN1c1cccnn1` (stereo not drawn) was -7.79%.
